Read-outs that look alike come from different tables or passages of the source. Marks after values point to notes of the source that are not given here.

Series [1] can be described thus: Lyophilisation solubility assay (Lysa). The class given is physicochemical. Particulars: phosphate buffer, pH 6.5, aqueous buffer, thermodynamic from solid. In a few lines:
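Solubility in μg/mL is read by UV or HPLC-UV on filtrate, neat and diluted 1/10. Before filtration, the residue from evaporated 10 mM DMSO stock was taken up in pH 6.5 0.05 M phosphate buffer, then stirred 1 h, shaken 2 h and stood overnight, in duplicate.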

Series [2] can be described thus: Mouse SDPK (single dose PK in male ICR mouse, plasma and liver). As to conditions: male ICR mice; for bioavailability / AUC(0-inf) / clearance: mouse; for bioavailability: 1 mg/kg IV, 3 mg/kg PO, read-out: F (bioavailability); for clearance: read-out: Plasma Cl (IV). It counts as in vivo. As to the method: The single dose PK in male ICR mouse was performed to assess their pharmacokinetic properties. Two groups of animals were dosed via either bolus intravenous (IV) or oral gavage (PO) of the respective compound. The animals for oral administration were fasted overnight prior to dosing and food was resumed 4 hours postdose. Blood samples (approximately 400 μL) were collected via cardiac puncture after euthanasia by carbon dioxide inhalation at 2 mins, 5 mins, 15 mins, 30 mins, 1 h, 2 hrs, 4 hrs, 6 hrs, 8 hrs, and 24 hrs postdose for IV group, and at 5 mins, 15 mins, 30 mins, 1 h, 2 hrs, 4 hrs, 6 hrs, 8 hrs, and 24 hrs postdose for PO group. Blood samples were placed into tubes containing sodium heparin and centrifuged at 8000 rpm for 6 minutes at 4° C. to separate plasma from the samples. Following centrifugation, the resulting plasma was transferred to clean tubes for bioanalysis on LC/MS/MS. The pharmacokinetic parameters were calculated using non-compartmental module of WinNonlin® Professional 5.2.

The test system of another series is HepDE19 cells. As to the kind of experiment: Cytotoxicity (CC50) in HepDE19 cells, CCK-8 cell viability. It counts as cell-based. In a few lines: (§1)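 HBV-transfected HepG2-derived HepDE19 cells grown in DMEM-F12 with 10% FBS and G418. Viability read five days after treatment by CCK-8, 2 h at 37 °C, absorbance at 450 and 630 nm.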
Series [3] is described as follows: Metabolic stability study in human microsome. It counts as in vitro ADME. An outline of the steps:
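Depletion of 1 μM compound followed by LC-MS/MS over 0–30 min (0, 3, 6, 9, 15, 30 min) after methanol quench. Incubations at 37 °C, pH 7.4 phosphate buffer, 0.5 mg/mL microsomal protein, with NADPH (1 mM) or a regenerating system as cofactor; controls lacked cofactor.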

For series [4], the system named is HBV. As to the kind of experiment: Anti-HBV activity in vitro in HepG2.2.15 cells (extracellular HBV DNA by qPCR). The class given is cell-based, Hepatitis B virus. Particulars: HepG2.2.15 cells, in-house data, read-out: EC50. An outline of the steps:
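Supernatant HBV DNA was measured by qPCR after viral DNA extraction. Samples came from 5-day cultures of HepG2.2.15 cells, an HBV-genome-transfected HepG2 line, exposed to half-log compound dilutions in medium containing 0.5% DMSO.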

For series [5], the system named is HBV. Nature of the series: Selectivity index (CC50 value/EC50 value). The class given is cell-based, Hepatitis B virus. In a few lines: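 Ratio of CC50 to EC50, measuring antiviral activity against HBV relative to cytotoxicity in vitro; higher values indicate greater separation between viral inhibition and cell death.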
Series [6] can be described thus: Cytotoxicity (CC50) in HepDE19 cells, CCK-8 cell viability. The class given is cell-based. As to conditions: human, HepDE19 cells; read-out: CC50. In a few lines: as §1
In series [7] the test system is HBV. As to conditions: literature data, Deres K. et al. Science 2003, 893-896; cited from earlier work.
The conditions of series [8]: literature data, Deres K. et al. Science 2003, 893-896; cited from earlier work.
Setting [9] is: plasma, dose 1 mg/kg IV, read-out: Plasma AUC(0-∞) (IV).
Setting [10] is: plasma, dose 3 mg/kg PO, read-out: Plasma AUC(0-∞) (PO).

As usually defined, the solubility (thermodynamic) is the concentration in solution at equilibrium with solid. The term bioavailability denotes dose-corrected exposure relative to a reference, in per cent. One may read the CC50 as the concentration at which the toxic effect on the cells reaches its halfway point. In turn, `COC(=O)C1=C(CN2CCOC[C@H]2C(=O)O)N=C(c2nccs2)N[C@H]1c1ccc(F)cc1Cl` [Example 5, (S)-4-[(R)-6-(2-Chloro-4-fluoro-phenyl)-5-methoxycarbonyl-2-thiazol-2-yl-3,6-dihydro-pyrimidin-4-ylmethyl]-morpholine-3-carboxylic acid] had a solubility (thermodynamic) in series [1] greater than 660 µg/mL. The “Liver AUC(0-∞) (PO)” value in [2] (dose 3 mg/kg PO) turned out to be 11800 ng·h/mL. The “Plasma AUC(0-∞) (PO)” value in series [2] (plasma, dose 3 mg/kg PO) amounted to 962 ng·h/mL. In series [2] (plasma), the bioavailability amounted to 37%. Besides, the AUC(0-inf) in series [2] (setting [9]) was 878 ng·h/mL. Moreover, the clearance in series [2] (plasma, dose 1 mg/kg IV) is 19 mL/min/kg. The molecule further registered a CC50 with HepDE19 cells greater than 100000 nM. The “Human Hepatic Clearance” value in series [3] is 2.7 mL/min/kg.
As usually defined, the EC50 is the midpoint of the concentration-response curve. Regarding `COC(=O)C1=C(CN2CC(F)(F)C[C@H]2C(=O)O)NC(c2nccs2)=N[C@H]1c1ccc(F)cc1Cl` [Example 2, (R)-6-((S)-2-Carboxy-4,4-difluoro-pyrrolidin-1-ylmethyl)-4-(2-chloro-4-fluoro-phenyl)-2-thiazol-2-yl-1,4-dihydro-pyrimidine-5-carboxylic acid methyl ester], the solubility (thermodynamic) in [1] was greater than 698 µg/mL. The EC50 in the series with HBV [4] (Hepatitis B virus) turned out to be 2.7 nM. Further, the “Selectivity index (CC50/EC50)” value with HBV [5] is 31481. Moreover, in series [2] (dose 3 mg/kg PO), the “Liver AUC(0-∞) (PO)” value came out at 18000 ng·h/mL. Further, the bioavailability in [2] (plasma) was determined as 94%. For the same molecule, the AUC(0-inf) stood at 995 ng·h/mL in [2] (setting [9]) and 2790 ng·h/mL in [2] (setting [10]). In addition, in [2] (plasma, dose 1 mg/kg IV), the clearance is 17 mL/min/kg. Further, the CC50 at 5 days in series [6] is 85000 nM. The “Human Hepatic Clearance” value in series [3] came out at 3.65 mL/min/kg.
For the molecule `COC(=O)C1=C(CN2CC(F)(F)C[C@H]2C(=O)O)NC(c2nc(C)cs2)=N[C@H]1c1ccc(F)cc1Cl` [Example 16, (R)-6-((S)-2-Carboxy-4,4-difluoro-pyrrolidin-1-ylmethyl)-4-(2-chloro-4-fluoro-phenyl)-2-(4-methyl-thiazol-2-yl)-1,4-dihydro-pyrimidine-5-carboxylic acid methyl ester], the solubility (thermodynamic) in series [1] was greater than 622 µg/mL. Moreover, the EC50 in the series on HBV [4] (Hepatitis B virus) was 2 nM. Moreover, in the series on HBV [5], the “Selectivity index (CC50/EC50)” value is 15000. Moreover, the “Liver AUC(0-∞) (PO)” value in series [2] (dose 3 mg/kg PO) stood at 35200 ng·h/mL. In [2] (plasma), the bioavailability was determined as 69%. Also, the AUC(0-inf) in series [2] (setting [9]) was 290 ng·h/mL; in series [2] (setting [10]) it was 598 ng·h/mL. Moreover, the clearance in series [2] (plasma, dose 1 mg/kg IV) worked out at 57 mL/min/kg. The CC50 at 5 days in series [6] came out at 30000 nM. The “Human Hepatic Clearance” value in series [3] is 6.35 mL/min/kg.
As to `COC(=O)C1=C(C)NC(c2ncc(F)cc2F)=N[C@H]1c1ccc(F)cc1Cl` [Bay 41-4109, reference compound], the EC50 in the series with HBV [4] is 87 nM; in the series on HBV [7] it was 50 nM. Further, the “F (bioavailability)” value is given as “(31^1) %” in [8] and 21% in series [2] (plasma, 5 mg/kg IV, 30 mg/kg PO). Besides, the “Plasma Cl (IV)” value in [8] is reported as “(67^1) mL/min/kg”; in [2] (plasma, dose 5 mg/kg IV) it was 60 mL/min/kg. The “Plasma AUC(0-∞) (IV)” value in series [2] (plasma, dose 5 mg/kg IV) stood at 1380 ng·h/mL. The “Plasma AUC(0-∞) (PO)” value in [2] (plasma, dose 30 mg/kg PO) was 1740 ng·h/mL.
